Laboratory results published in ChEMBL document CHEMBL5463725, “Data for DCP probe BAY-277” (2023).
The source made the active and inactive calls. The rule behind the calls is not given here.

Tests used:
Histamine H3 receptor = Histamine H3 receptor (Homo sapiens, UniProt Q9Y5N1); assay: GPCRScan assay: inhibition of H3; set-up: radioligand conc. used [nm] 0.5 – 1.0, parental cells HEK Flp-In
[1] = target: Sigma intracellular receptor 2 (Homo sapiens, UniProt Q5BJF2); assay: GPCRScan assay: inhibition of Sigma 2; set-up: radioligand conc. used [nm] 5.0, parental cells HEKT
Chain of Sigma intracellular receptor 2 (Q5BJF2 whole entry): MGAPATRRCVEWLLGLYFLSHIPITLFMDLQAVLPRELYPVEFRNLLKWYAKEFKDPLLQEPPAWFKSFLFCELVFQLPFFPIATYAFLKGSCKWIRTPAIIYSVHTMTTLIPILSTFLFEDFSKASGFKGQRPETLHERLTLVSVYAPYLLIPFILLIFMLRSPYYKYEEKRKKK

[2] = target: Methionine aminopeptidase 2 (Homo sapiens, UniProt P50579); assay: METAP2 biochemical assay (human)
[3] = target: Serine/threonine-protein kinase haspin (Homo sapiens) (UniProt Q8TF76); assay: Inhibition of Haspin(h) at 10.0 µM in the Eurofins Kinase panel; conditions: Compound concentration 10.0 uM
Chain of Serine/threonine-protein kinase haspin (Homo sapiens) (Q8TF76 whole entry): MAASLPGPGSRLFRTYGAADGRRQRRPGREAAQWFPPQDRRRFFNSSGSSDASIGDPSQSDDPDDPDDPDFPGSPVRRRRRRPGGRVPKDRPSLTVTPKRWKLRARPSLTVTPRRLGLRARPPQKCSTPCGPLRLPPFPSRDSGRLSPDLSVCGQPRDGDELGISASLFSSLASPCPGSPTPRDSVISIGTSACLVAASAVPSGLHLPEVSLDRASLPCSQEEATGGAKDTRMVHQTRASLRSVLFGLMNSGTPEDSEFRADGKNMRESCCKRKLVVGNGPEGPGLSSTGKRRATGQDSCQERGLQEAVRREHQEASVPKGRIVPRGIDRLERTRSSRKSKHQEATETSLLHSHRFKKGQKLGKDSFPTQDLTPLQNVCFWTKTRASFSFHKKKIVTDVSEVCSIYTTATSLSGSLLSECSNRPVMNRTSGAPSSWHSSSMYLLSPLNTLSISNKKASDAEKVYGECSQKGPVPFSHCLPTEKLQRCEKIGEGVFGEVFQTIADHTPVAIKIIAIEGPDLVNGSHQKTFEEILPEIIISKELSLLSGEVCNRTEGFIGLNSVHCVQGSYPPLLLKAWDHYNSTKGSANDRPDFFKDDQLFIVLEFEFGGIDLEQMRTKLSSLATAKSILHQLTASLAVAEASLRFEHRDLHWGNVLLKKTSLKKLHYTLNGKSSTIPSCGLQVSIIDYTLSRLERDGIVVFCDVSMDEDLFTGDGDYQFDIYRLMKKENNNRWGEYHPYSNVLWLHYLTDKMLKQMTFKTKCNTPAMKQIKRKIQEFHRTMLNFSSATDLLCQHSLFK

[4] = target: Tyrosine-protein kinase Blk (Homo sapiens) (UniProt P51451); assay: Inhibition of Blk(h) at 10.0 µM in the Eurofins Kinase panel; conditions: Compound concentration 10.0 uM
[5] = target: Beta-adrenergic receptor kinase 1 (Homo sapiens) (UniProt P25098); assay: Inhibition of GRK2(h) at 10.0 µM in the Eurofins Kinase panel; conditions: Compound concentration 10.0 uM
[6] = target: Death-associated protein kinase 3 (Homo sapiens) (UniProt O43293); assay: Inhibition of ZIPK(h) at 10.0 µM in the Eurofins Kinase panel; conditions: Compound concentration 10.0 uM
[7] = target: Aldo-keto reductase family 1 member B1 (Rattus norvegicus) (UniProt P07943); assay: Inhibition of Aldose Reductase at 10.0 µM in the Eurofins Panlabs Safety Screen; conditions: Compound concentration 10.0 uM
[8] = target: Adenosine receptor A1 (Homo sapiens) (UniProt P30542); assay: Inhibition of Adenosine A1 at 10.0 µM in the Eurofins Panlabs Safety Screen; conditions: Compound concentration 10.0 uM
[9] = target: Beta-1 adrenergic receptor (Homo sapiens) (UniProt P08588); assay: Inhibition of Adrenergic beta1 at 10.0 µM in the Eurofins Panlabs Safety Screen; conditions: Compound concentration 10.0 uM
D(3) dopamine receptor = D(3) dopamine receptor (Homo sapiens, UniProt P35462); assay: Inhibition of Dopamine D3 at 10.0 µM in the Eurofins Panlabs Safety Screen; conditions: Compound concentration 10.0 uM
[10] = target: Estrogen receptor (Homo sapiens) (UniProt P03372); assay: Inhibition of Estrogen Eralpha at 10.0 µM in the Eurofins Panlabs Safety Screen; conditions: Compound concentration 10.0 uM
[11] = target: Growth hormone secretagogue receptor type 1 (Homo sapiens) (UniProt Q92847); assay: Inhibition of Growth Hormone Secretagogue (GHS, Ghrelin) at 10.0 µM in the Eurofins Panlabs Safety Screen; conditions: Compound concentration 10.0 uM
[12] = target: Histamine H1 receptor (Homo sapiens) (UniProt P35367); assay: Inhibition of Histamine H1 at 10.0 µM in the Eurofins Panlabs Safety Screen; conditions: Compound concentration 10.0 uM
Chain of Histamine H1 receptor (Homo sapiens) (P35367 whole entry): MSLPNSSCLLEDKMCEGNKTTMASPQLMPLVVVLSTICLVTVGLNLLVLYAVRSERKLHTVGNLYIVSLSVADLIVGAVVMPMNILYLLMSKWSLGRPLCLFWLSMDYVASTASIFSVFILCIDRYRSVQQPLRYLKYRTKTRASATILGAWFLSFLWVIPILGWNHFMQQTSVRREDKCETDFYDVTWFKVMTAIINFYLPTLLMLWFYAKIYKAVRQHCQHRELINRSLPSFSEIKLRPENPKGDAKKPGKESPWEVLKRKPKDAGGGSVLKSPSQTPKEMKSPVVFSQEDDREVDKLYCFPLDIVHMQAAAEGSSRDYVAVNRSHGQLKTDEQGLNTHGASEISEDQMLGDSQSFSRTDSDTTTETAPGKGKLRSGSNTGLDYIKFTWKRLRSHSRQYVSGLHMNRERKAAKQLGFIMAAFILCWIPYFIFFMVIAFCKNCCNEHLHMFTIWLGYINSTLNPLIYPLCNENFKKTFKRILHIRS

[13] = target: Neuronal acetylcholine receptor; alpha3/beta4 (Homo sapiens) (UniProt P30926+P32297); assay: Inhibition of Nicotinic Acetylcholine alpha3beta4 at 10.0 µM in the Eurofins Panlabs Safety Screen; type: protein-complex assay; conditions: Compound concentration 10.0 uM
[14] = target: Kappa-type opioid receptor (Homo sapiens) (UniProt P41145); assay: Inhibition of Opiate kappa(OP2, KOP) at 10.0 µM in the Eurofins Panlabs Safety Screen; conditions: Compound concentration 10.0 uM
Chain of Kappa-type opioid receptor (Homo sapiens) (P41145 whole entry): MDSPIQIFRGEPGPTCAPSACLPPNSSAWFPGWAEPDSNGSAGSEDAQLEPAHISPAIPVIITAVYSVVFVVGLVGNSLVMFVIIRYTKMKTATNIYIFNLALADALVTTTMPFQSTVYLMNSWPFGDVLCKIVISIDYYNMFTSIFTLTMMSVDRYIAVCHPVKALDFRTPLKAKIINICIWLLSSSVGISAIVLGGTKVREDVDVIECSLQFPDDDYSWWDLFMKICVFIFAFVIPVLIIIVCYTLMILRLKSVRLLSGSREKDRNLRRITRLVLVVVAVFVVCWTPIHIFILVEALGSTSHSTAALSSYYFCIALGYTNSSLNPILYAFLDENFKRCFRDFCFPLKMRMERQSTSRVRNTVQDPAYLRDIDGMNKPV

[15] = target: T1, 5-hydroxytryptamine receptor 2C (Homo sapiens) (UniProt P28335); assay: Inhibition of Serotonin (5-Hydroxytryptamine) 5-HT2C at 10.0 µM in the Eurofins Panlabs Safety Screen; conditions: Compound concentration 10.0 uM
T1 sequence (whole entry): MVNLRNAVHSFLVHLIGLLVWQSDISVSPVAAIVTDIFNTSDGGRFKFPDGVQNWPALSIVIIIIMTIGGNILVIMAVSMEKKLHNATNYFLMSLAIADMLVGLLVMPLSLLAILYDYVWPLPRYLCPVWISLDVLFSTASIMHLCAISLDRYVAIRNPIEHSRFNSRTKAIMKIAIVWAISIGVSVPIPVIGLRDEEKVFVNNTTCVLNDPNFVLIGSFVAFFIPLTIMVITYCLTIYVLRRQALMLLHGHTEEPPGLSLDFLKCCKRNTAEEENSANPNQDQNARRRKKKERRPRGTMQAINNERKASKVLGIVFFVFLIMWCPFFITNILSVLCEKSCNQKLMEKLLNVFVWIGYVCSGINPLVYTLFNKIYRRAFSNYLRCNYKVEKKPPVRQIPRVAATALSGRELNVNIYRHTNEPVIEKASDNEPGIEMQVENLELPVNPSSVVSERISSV

[16] = target: Adenosine Transporter (Cavia porcellus) (UniProt H0V4R7+H0UUG1+H0V3Z5); assay: Inhibition of Transporter, Adenosine at 10.0 µM in the Eurofins Panlabs Safety Screen; type: protein assay; conditions: Compound concentration 10.0 uM
[17] = target: Sodium-dependent serotonin transporter (Homo sapiens) (UniProt P31645); assay: Inhibition of Transporter, Serotonin (5-Hydroxytryptamine) (SERT) at 10.0 µM in the Eurofins Panlabs Safety Screen; conditions: Compound concentration 10.0 uM
[18] = target: T1, 5-hydroxytryptamine receptor 2C (Homo sapiens); conditions: Compound concentration 10.0 uM
[19] = target: D(4) dopamine receptor (Homo sapiens) (UniProt P21917); conditions: Compound concentration 10.0 uM
Chain of D(4) dopamine receptor (Homo sapiens) (P21917 whole entry): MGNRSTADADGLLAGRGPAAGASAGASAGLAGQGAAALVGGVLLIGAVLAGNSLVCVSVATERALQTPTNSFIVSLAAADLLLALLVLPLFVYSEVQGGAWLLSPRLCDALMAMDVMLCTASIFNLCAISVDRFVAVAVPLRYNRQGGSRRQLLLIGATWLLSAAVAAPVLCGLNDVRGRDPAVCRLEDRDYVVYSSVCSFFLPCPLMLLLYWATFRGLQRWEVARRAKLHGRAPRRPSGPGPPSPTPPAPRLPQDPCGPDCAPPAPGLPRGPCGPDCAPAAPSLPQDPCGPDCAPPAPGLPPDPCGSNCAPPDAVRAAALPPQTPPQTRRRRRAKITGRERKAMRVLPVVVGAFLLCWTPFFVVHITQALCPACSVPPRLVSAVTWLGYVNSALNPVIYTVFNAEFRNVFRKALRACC

[20] = target: D(1B) dopamine receptor (Homo sapiens) (UniProt P21918); conditions: Compound concentration 10.0 uM
Chain of D(1B) dopamine receptor (Homo sapiens) (P21918 whole entry): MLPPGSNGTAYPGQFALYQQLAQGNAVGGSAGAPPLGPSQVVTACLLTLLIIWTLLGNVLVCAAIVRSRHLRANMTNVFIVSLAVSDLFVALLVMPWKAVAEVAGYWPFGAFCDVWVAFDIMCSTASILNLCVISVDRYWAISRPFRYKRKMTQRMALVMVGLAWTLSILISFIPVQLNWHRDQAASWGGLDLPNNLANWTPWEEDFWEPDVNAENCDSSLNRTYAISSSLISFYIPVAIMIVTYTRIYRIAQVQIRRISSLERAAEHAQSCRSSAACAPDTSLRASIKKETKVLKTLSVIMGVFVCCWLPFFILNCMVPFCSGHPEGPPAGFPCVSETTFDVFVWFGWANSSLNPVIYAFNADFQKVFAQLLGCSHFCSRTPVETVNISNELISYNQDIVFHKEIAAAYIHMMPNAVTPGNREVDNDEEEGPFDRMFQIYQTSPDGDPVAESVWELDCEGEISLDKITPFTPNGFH

[21] = target: Delta-type opioid receptor (Homo sapiens) (UniProt P41143); conditions: Compound concentration 10.0 uM
Chain of Delta-type opioid receptor (Homo sapiens) (P41143 whole entry): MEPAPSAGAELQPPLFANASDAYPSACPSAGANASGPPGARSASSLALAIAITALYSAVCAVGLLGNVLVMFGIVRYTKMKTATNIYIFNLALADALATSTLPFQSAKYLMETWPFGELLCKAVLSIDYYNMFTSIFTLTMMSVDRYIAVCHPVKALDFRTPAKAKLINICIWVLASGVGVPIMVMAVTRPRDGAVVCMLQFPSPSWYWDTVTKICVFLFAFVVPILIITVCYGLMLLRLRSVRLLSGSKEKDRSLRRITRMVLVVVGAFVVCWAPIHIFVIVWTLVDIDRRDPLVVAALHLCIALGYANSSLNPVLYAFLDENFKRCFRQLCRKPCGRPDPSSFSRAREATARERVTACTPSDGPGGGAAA

[22] = target: Kappa-type opioid receptor (Homo sapiens) (UniProt P41145); conditions: Compound concentration 10.0 uM
[23] = target: Histamine H2 receptor (Homo sapiens) (UniProt P25021); conditions: Compound concentration 10.0 uM
Chain of Histamine H2 receptor (Homo sapiens) (P25021 whole entry): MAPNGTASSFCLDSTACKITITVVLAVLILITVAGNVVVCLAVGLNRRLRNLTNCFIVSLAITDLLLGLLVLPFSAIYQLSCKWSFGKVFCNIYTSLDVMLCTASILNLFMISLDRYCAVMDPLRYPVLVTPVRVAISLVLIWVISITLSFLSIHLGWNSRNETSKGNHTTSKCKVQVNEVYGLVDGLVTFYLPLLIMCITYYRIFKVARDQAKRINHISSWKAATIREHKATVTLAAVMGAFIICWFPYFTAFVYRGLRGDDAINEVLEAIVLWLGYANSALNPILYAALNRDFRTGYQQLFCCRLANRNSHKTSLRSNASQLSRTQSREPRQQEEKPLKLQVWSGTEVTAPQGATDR

[24] = target: Beta-2 adrenergic receptor (Homo sapiens) (UniProt P07550); conditions: Compound concentration 10.0 uM
Chain of Beta-2 adrenergic receptor (Homo sapiens) (P07550 whole entry, looked up): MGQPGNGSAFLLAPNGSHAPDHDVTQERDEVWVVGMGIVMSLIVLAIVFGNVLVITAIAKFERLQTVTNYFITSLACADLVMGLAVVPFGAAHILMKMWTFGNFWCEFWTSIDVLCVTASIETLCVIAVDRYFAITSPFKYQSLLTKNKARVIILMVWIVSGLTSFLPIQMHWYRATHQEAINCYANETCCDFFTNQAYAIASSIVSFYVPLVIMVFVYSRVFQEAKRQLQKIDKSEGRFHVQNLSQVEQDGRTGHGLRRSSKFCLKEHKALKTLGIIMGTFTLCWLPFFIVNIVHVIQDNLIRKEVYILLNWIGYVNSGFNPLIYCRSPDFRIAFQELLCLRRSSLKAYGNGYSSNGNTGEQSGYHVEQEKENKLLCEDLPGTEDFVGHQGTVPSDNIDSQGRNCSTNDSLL

[25] = target: Beta-3 adrenergic receptor (Homo sapiens) (UniProt P13945); conditions: Compound concentration 10.0 uM
Chain of Beta-3 adrenergic receptor (Homo sapiens) (P13945 whole entry, looked up): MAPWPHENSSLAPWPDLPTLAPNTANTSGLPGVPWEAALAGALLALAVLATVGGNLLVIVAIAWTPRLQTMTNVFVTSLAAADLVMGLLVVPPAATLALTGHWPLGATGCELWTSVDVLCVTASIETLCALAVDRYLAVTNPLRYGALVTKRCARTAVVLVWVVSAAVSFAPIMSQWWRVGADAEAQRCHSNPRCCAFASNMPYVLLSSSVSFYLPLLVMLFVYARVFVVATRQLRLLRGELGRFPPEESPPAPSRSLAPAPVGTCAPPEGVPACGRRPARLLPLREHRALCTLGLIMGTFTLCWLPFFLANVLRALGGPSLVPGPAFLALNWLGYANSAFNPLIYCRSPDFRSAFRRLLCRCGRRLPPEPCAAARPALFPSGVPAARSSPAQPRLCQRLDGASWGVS

[26] = target: GABA-A receptor; anion channel (Rattus norvegicus) (UniProt O09028+P15431+P18506+P18508+P19969+P20236+P23574+P23576+P28471+P28473+P30191+P62813+P63079+P63138+Q91ZM7+Q9ES14); conditions: Compound concentration 10.0 uM

Chain of Histamine H3 receptor (Q9Y5N1 whole entry): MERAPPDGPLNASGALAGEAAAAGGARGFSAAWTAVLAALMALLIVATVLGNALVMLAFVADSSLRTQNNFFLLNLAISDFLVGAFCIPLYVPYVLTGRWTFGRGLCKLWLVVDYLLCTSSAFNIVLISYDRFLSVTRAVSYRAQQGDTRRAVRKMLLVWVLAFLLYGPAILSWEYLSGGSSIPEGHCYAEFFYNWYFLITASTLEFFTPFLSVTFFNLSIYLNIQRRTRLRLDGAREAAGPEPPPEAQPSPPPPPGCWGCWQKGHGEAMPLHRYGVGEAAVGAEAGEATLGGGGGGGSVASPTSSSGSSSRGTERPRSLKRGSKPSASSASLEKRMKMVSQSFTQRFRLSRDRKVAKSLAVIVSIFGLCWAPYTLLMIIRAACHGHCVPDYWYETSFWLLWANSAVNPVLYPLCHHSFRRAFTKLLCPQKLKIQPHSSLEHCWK

Row | Structure (SMILES) | Ki (Histamine H3 receptor; read-out: Ki) | Ki (Histamine H3 receptor; read-out: pKi (converted)) | Ki ([1]; read-out: Ki) | Ki ([1]; read-out: pKi (converted)) | IC50 [2] | inhibition [3] | inhibition [4] | inhibition [5] | inhibition [6] | inhibition [7] | inhibition [8] | inhibition [9] | inhibition (D(3) dopamine receptor) | inhibition [10] | inhibition [11] | inhibition [12] | inhibition [13] | inhibition [14] | inhibition [15] | inhibition [16] | further results
1 | O=C1CCC(N2Cc3cc(C4CCN(C(=O)CCCCCN5CCC(c6ccc(Oc7nn8cnnc8c8c7CCCC8)cc6)CC5)CC4)ccc3C2=O)C(=O)N1 (stereo not given) | 72.8 nM | 70.8 nM | 867 nM | 832 nM | 5.8 nM (active) | 28.6% | 13.9% | 11.9% | 11.7% | 32% | 7% | 0% | 90% | 17% | 2% | 23% | 24% | 18% | 14% | 40% | inhibition [17]: 32%; inhibition [18]: 5.83%; inhibition [19]: 14.3%; inhibition [20]: 1.6%; inhibition [21]: 17.5%; inhibition [22]: 27.6%; inhibition [23]: 42.2%; inhibition [24]: 2.82%; inhibition [25]: 27.8%; inhibition [26]: 36.6%
2 | O=C1NCCCC1N1Cc2cc(C3CCN(C(=O)CCCCCN4CCC(c5ccc(Oc6nn7cnnc7c7c6CCCC7)cc5)CC4)CC3)ccc2C1=O (stereo not given) | 73.2 nM | 72.4 nM | 1140 nM | 977 nM | 5.7 nM | 26% | 26.1% | 15.1% | 15.9% | 29% | 3% | 10% | 76% | 22% | 5% | 22% | 6% | 35% | 2% | 44% | inhibition [17]: 22%; inhibition [18]: 3.95%; inhibition [19]: 19.1%; inhibition [20]: 10.8%; inhibition [21]: 19.5%; inhibition [22]: 29.3%; inhibition [23]: 42.1%; inhibition [24]: -7.69%; inhibition [25]: 7.19%; inhibition [26]: 44.6%
